Measured values taken from patent publication US10793557B2, “Sting agonist compounds” (Merck Sharp & Dohme Corp., priority 2018, dated 2020).

What was measured:
[1] = tested on: secretion of interferon-beta from THP1 cells; experiment: IFN-β secretion in THP1 cell culture (5 h); type: cell-based; settings: Homo sapiens, THP-1, 5 h, 30 uM cGAMP = 100%; for activation at 30 µM: compound at 30 μM, read-out: % Effect at 30 μM relative to 2′3′-cGAMP; for activation at 3 µM: compound at 3 uM, read-out: % Effect relative to 2′3′-cGAMP (@ 3 uM)
Procedure, shortened: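 IFN-β in supernatant measured by AlphaLISA after a 5 h, 37 °C incubation of THP1 cells with compound (10 concentrations, 30000 down to 1.5 nM, 0.3% DMSO) in low-serum RPMI. Values scaled between DMSO and 30 uM cGAMP controls; 4-parameter curve fit yields EC50.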

full-length HAQ STING = target: T1, full-length HAQ STING (Homo sapiens, UniProt Q86WV6, G230A/H232R/R293Q/R71H); experiment: 3H-cGAMP filtration binding assay (HAQ STING); settings: competition with tritiated cGAMP, HAQ STING membrane
T1 construct: AviTag (after GG linker) (C); HRV3C cleavage site (after GS linker) (C); HIS8 (C); made in house; host or cells: Trichoplusia ni (Hi-Five) insect cells infected with baculovirus (virus generated and amplified in Sf21 cells); used as a washed membrane preparation
T1 sequence (Q86WV6 with tags, fused parts or gaps R71H/G230A/H232R/R293Q): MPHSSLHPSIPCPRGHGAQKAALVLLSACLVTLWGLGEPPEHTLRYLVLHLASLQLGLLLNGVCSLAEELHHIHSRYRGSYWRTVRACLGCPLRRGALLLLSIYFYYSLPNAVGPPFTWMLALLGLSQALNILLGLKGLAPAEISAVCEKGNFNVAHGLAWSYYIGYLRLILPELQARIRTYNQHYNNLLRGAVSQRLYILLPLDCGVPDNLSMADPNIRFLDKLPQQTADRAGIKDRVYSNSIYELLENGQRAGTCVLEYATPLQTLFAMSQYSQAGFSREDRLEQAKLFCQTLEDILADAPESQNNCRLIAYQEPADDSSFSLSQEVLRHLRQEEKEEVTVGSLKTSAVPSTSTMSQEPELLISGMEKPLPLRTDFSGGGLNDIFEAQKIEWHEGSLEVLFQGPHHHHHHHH
Procedure, shortened: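 Hi-Five (T. ni) membranes overexpressing the STING variant (2.2 ug/ml working) preincubated with compound 60 min at RT in PBS, then [3H]cGAMP (8 nM working stock) added for 60 min at RT. Bound radioactivity captured on GF/B filters and counted by scintillation; EC50 from 4-parameter fit of control-normalized activity.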

full-length WT STING = target: T2, full-length WT STING (Homo sapiens, UniProt Q86WV6, H232R); experiment: 3H-cGAMP filtration binding assay (WT STING); settings: for EC50: competition with tritiated cGAMP, WT STING membrane
T2 construct: AviTag (after gg linker) (C); HRV3C cleavage site (after gs linker) (C); HIS8 (C); made in house; host or cells: Trichoplusia ni (Hi-Five) insect cells infected with baculovirus (virus generated and amplified in Sf21 cells); used as a washed membrane preparation
T2 sequence (Q86WV6 with tags, fused parts or gaps H232R): as the sequence (Q86WV6 with tags, fused parts or gaps R71H/G230A/H232R/R293Q) above, with H71R, A230G, Q293R counted along it
Procedure, shortened: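 EC50 values come from 4-parameter fits of remaining filter-bound tritium versus log concentration (10-point, 1:3 dilution). Insect-cell membranes carrying full-length WT STING were incubated 60 min at RT with compound and tritiated cGAMP (16 nM working stock) before filtration.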

## COc1cc2sc(C(=O)C[C@H](C)C(=O)O)cc2cc1OCCCOc1c(OC)cc2sc(C(=O)C[C@H](C)C(=O)O)cc2c1F [Example 69, (S)-4-(5-(3-((2-((S)-3-carboxybutanoyl)-4-fluoro-6-methoxybenzo[b]thiophen-5-yl)oxy)propoxy)-6-methoxybenzo[b]thiophen-2-yl)-2-methyl-4-oxobutanoic acid]
[1]
  activation at 30 µM: 46%
full-length HAQ STING
  EC50: 1 nM
full-length WT STING
  EC50: 2 nM

## COc1cc2sc(C(=O)C[C@@H](C)C(=O)O)cc2cc1OCCOc1c(OC)cc2sc(C(=O)C[C@H](C)C(=O)O)cc2c1F [Example 66, (R)-4-(5-(2-((2-((S)-3-carboxybutanoyl)-4-fluoro-6-methoxybenzo[b]thiophen-5-yl)oxy)ethoxy)-6-methoxybenzo [b]thiophen-2-yl)-2-methyl-4-oxobutanoic acid]
[1]
  activation at 30 µM: 103%
full-length HAQ STING
  EC50: 4 nM
full-length WT STING
  EC50: 20 nM

## COc1cc2sc(C(=O)C[C@H](C)C(=O)O)cc2cc1CCCOc1c(OC)cc2sc(CC[C@H](C)C(=O)O)cc2c1F [Example 100, (S)-4-(5-(3-((2-((S)-3-carboxybutyl)-4-fluoro-6-methoxybenzo[b]thiophen-5-yl)oxy)propyl)-6-methoxybenzo[b]thiophen-2-yl)-2-methyl-4-oxobutanoic acid]
[1]
  activation at 3 µM: 33%
full-length HAQ STING
  EC50: 277 nM
full-length WT STING
  EC50: 2240 nM

## COc1cc2sc(C(=O)C[C@H](C)C(=O)O)cc2c(F)c1OCCCOc1cc2cc(C(=O)C[C@H](C)C(=O)O)sc2cc1O [Example 180, (S)-4-(5-(3-((2-((S)-3-Carboxybutanoyl)-4-fluoro-6-methoxybenzo[b]thiophen-5-yl)oxy)propoxy)-6-hydroxybenzo [b]thiophen-2-yl)-2-methyl-4-oxobutanoic acid]
[1]
  activation at 3 µM: 121%
full-length HAQ STING
  EC50: 1 nM
full-length WT STING
  EC50: 1 nM

## COc1cc2sc(C(=O)CCC(=O)O)cc2nc1OCCOc1c(OC)cc2sc(C(=O)C[C@H](C)C(=O)O)cc2c1F [Example 83, (S)-4-(5-(2-((2-(3-carboxypropanoyl)-6-methoxythieno[3,2-b]pyridin-5-yl)oxy)ethoxy)-4-fluoro-6-methoxybenzo[b]thiophen-2-yl)-2-methyl-4-oxobutanoic acid]
[1]
  activation at 30 µM: 107%
full-length HAQ STING
  EC50: 2 nM
full-length WT STING
  EC50: 9 nM

## COc1cc2sc(C(=O)CCC(=O)O)cc2cc1OCCCc1nc2cc(C(=O)CCC(=O)O)sc2cc1OC [Example 13, 4-(5-(3-((2-(3-carboxypropanoyl)-6-methoxybenzo[b]thiophen-5-yl)oxy)propyl)-6-methoxythieno[3,2-b]pyridin-2-yl)-4-oxobutanoic acid]
[1]
  activation at 30 µM: 67%
full-length HAQ STING
  EC50: 158 nM
full-length WT STING
  EC50: 625 nM

## COc1cc2sc(CC[C@H](C)C(=O)O)cc2c(F)c1OCCCOc1c(OC)cc2sc(C(=O)C[C@H](C)C(=O)O)cc2c1F [Example 101, (S)-4-(5-(3-((2-((S)-3-carboxybutyl)-4-fluoro-6-methoxybenzo[b]thiophen-5-yl)oxy)propoxy)-4-fluoro-6-methoxybenzo[b]thiophen-2-yl)-2-methyl-4-oxobutanoic acid]
[1]
  activation at 30 µM: 85%
full-length HAQ STING
  EC50: 1 nM
full-length WT STING
  EC50: 2 nM

## COc1cc2sc(C(=O)C[C@H](C)C(=O)O)cc2cc1OCCCc1nc2cc(C(=O)CCC(=O)O)sc2cc1OC [Example 15, (S)-4-(5-(3-(2-(3-carboxypropanoyl)-6-methoxythieno [3,2-b]pyridin-5-yl)propoxy)-6-methoxybenzo[b]thiophen-2-yl)-2-methyl-4-oxobutanoic acid]
[1]
  activation at 30 µM: 114%
full-length HAQ STING
  EC50: 107 nM
full-length WT STING
  EC50: 615 nM

## COc1cc2sc(C(=O)C[C@H](C)C(=O)O)cc2c(F)c1OCCCOc1c(OC)c(Cl)c2sc(C(=O)C[C@H](C)C(=O)O)cc2c1Cl [Example 137, (S)-4-(5-(3-((2-((S)-3-carboxybutanoyl)-4,7-dichloro-6-methoxybenzo[b]thiophen-5-yl)oxy)propoxy)-4-fluoro-6-methoxybenzo[b]thiophen-2-yl)-2-methyl-4-oxobutanoic acid]
[1]
  activation at 30 µM: 155%
full-length HAQ STING
  EC50: 40 nM
full-length WT STING
  EC50: 319 nM

## COc1cc2sc(C(=O)C[C@H](C)C(=O)O)cc2cc1OCCCOc1c(O)cc2sc(C(=O)C[C@H](C)C(=O)O)cc2c1Cl [Example 183, (S)-4-(5-(3-((2-((S)-3-carboxybutanoyl)-4-chloro-6-hydroxybenzo[b]thiophen-5-yl)oxy)propoxy)-6-methoxybenzo[b]thiophen-2-yl)-2-methyl-4-oxobutanoic acid]
[1]
  activation at 3 µM: 127%
full-length HAQ STING
  EC50: 1 nM
full-length WT STING
  EC50: 3 nM

## COc1cc2sc(C(=O)CCC(=O)O)cc2cc1CCCNc1nc2cc(C(=O)CCC(=O)O)sc2cc1OC [Example 75, 4-(5-((3-(2-(3-carboxypropanoyl)-6-methoxybenzo[b]thiophen-5-yl)propyl)amino)-6-methoxythieno[3,2-b]pyridin-2-yl)-4-oxobutanoic acid]
[1]
  activation at 30 µM: 63%
full-length HAQ STING
  EC50: 139 nM
full-length WT STING
  EC50: 691 nM

## COc1cc2sc(C(=O)C[C@H](C)C(=O)O)cc2cc1OCCCCCCOc1cc2cc(C(=O)C[C@H](C)C(=O)O)sc2cc1OC [Example 110, (2S,2′S)-4,4′-(5,5′-(hexane-1,6-diylbis(oxy))bis(6-methoxybenzo[b]thiophene-5,2-diyl))bis(2-methyl-4-oxobutanoic acid)]
[1]
  activation at 30 µM: 6%
full-length HAQ STING
  EC50: 18600 nM
full-length WT STING; at 20,000 nM compound
  inhibition at 20 µM: 15%

## COc1cc2sc(C(=O)CCC(=O)O)cc2cc1OCCCOc1c(OC)cc2sc(C(=O)C[C@H](C)C(=O)O)cc2c1F [Example 39, (S)-4-(5-(3-((2-(3-carboxypropanoyl)-6-methoxybenzo [b]thiophen-5-yl)oxy)propoxy)-4-fluoro-6-methoxybenzo[b]thiophen-2-yl)-2-methyl-4-oxobutanoic acid]
[1]
  activation at 30 µM: 75%
full-length HAQ STING
  EC50: 1 nM
full-length WT STING
  EC50: 2 nM

## COc1cc2sc(C(=O)[C@H]3C[C@@H]3C(=O)O)cc2c(F)c1OCCCOc1c(OC)cc2sc(C(=O)[C@@H]3C[C@H]3C(=O)O)cc2c1F [Example 87, trans-2-(5-(3-((2-((1R,2R)-2-carboxycyclopropanecarbony)-4-fluoro-6-methoxybenzo[b]thiophen-5-yl)oxy)propoxy)-4-fluoro-6-methoxybenzo[b]thiophene-2-carbonyl)cyclopropane carboxylic acid]
[1]
  activation at 30 µM: 120%
full-length HAQ STING
  EC50: 167 nM
full-length WT STING
  EC50: 1920 nM

## COc1cc2sc(C(=O)CCC(=O)O)cc2c(F)c1OCCCOc1c(OC)cc2sc(C(=O)[C@@H]3C[C@H]3C(=O)O)cc2c1F (relative stereo) [Example 88, trans-2-(5-(3-((2-(3-carboxypropanoyl)-4-fluoro-6-methoxybenzo[b]thiophen-5-yl)oxy)propoxy)-4-fluoro-6-methoxybenzo[b]thiophene-2-carbonyl)cyclopropane carboxylic acid]
[1]
  activation at 30 µM: 152%
full-length HAQ STING
  EC50: 3 nM
full-length WT STING
  EC50: 109 nM

## COc1cc2sc(C(=O)C[C@H](C)C(=O)O)cc2cc1NCCCOc1c(OC)cc2sc(C(=O)C[C@H](C)C(=O)O)cc2c1F [Example 176, (S)-4-(5-((3-((2-((S)-3-Carboxybutanoyl)-4-fluoro-6-methoxybenzo [b]thiophen-5-yl)oxy)propyl)amino)-6-methoxybenzo[b]thiophen-2-yl)-2-methyl-4-oxobutanoic acid]
[1]
  activation at 30 µM: 44%
full-length HAQ STING
  EC50: 1 nM
full-length WT STING
  EC50: 2 nM
